Assay results published in patent US20150141342A1, “BLOOD BORNE miRNA SIGNATURE FOR THE ACCURATE DIAGNOSIS OF PANCREATIC DUCTAL ADENOCARCINOMA” (Indiana University Research and Technology Corp., priority 2013, published 2015).

Assays:
COLO-357 cells = test: Matrigel transwell invasion assay, COLO-357; type: cell-based, human; details: COLO-357 transfected with miR-10b precursor, erlotinib 2 μM; for miR-10b's effects on combined EGF-TGF-β1 actions on invasion: 1 nM EGF + 0.5 nM TGF-β1, 20 h, SB505124 10 μM
Description: (§1) Invasion and Migration Assays. miR-10b precursor and precursor control transfected cells (5×104) were plated in Matrigel pre-coated transwell chambers (BD Biosciences, San Jose, Calif.) and assays performed as previously reported. UO126 (1 μM) were from Alexis Biochemicals (San Diego, Calif.). Erlotinib (2 μM; Genentech, Inc., South San Francisco, Calif.), and LY294002 (10 μM; Calbiochem, San Diego, Calif.), were added to SF in the lower chamber, in the absence or presence of 1 nM EGF and/or 0.5 nM TGF-β1. Wound healing assays were performed as previously reported. Briefly, 24 hours after cell transfection with pre-miR-10b oligonucleotides, cells were serum starved overnight, and the monolayer was scratched with a 200 μL pipette tip generating two parallel wounds. Cells were then rinsed twice with HBSS and incubated for 24 h in SF media in the absence or presence of 1 nM EGF, 0.5 nM TGF-β1, or their combination, and migration was calculated as the percent change in the wound area.

PANC-1 cells = test: Matrigel transwell invasion assay, PANC-1; type: cell-based, human; details: PANC-1 transfected with miR-10b precursor, erlotinib 2 μM; for miR-10b's effects on combined EGF-TGF-β1 actions on invasion: 1 nM EGF + 0.5 nM TGF-β1, 20 h, SB505124 10 μM
Description: as §1

[1] = 1 nM EGF, 20 h, LY294002 10 μM, UO126 1 μM

Structure (SMILES) | miR-10b's effects on combined EGF-TGF-β1 actions on invasion (COLO-357 cells) | miR-10b's effects on combined EGF-TGF-β1 actions on invasion (PANC-1 cells) | EGF-induced invasion in the presence of miR-10b (COLO-357 cells; [1]) | EGF-induced invasion in the presence of miR-10b (PANC-1 cells; [1])
Cc1cccc(-c2[nH]c(C(C)(C)C)nc2-c2ccc3c(c2)OCO3)n1 [SB505124] | markedly attenuated | markedly attenuated | – | –
C#Cc1cccc(Nc2ncnc3cc(OCCOC)c(OCCOC)cc23)c1 [erlotinib] | markedly attenuated | markedly attenuated | completely blocked | completely blocked
